Data taken from patent EP0211183A2, “Use of ubidecarenone(ubiquinone-10) as an antichromatotic agent” (Eisai Co., Ltd., priority 1985, dated 1987).
Read-outs that look alike come from different tables or passages of the source.

What was measured:
[1] = Acute toxicity, various dosage pathways, 7-day lethality, LD50 by Litchfield-Wilcoxon; type: in vivo, ICR-JCL mice; conditions: in vivo, read-out: LD50 value (95% confidence limit)
Procedure: (§1) The acute toxicity of the present substance was investigated in various dosage pathways by the use of Wister rats and ICR-JCL mice. For the peroral or endermic dosage, the present substance was dissolved in a distilled water and the resulting solution was used. For the other dosages, the present substance was dissolved in a physiological salt solution and the resulting solution was dosed with a stomach conductor or an injector. In each dosage, a determined amount of the substance was regulated and properly dosed.
(§2) After the dosage, the expression of toxicopathy was continuously observed, and the lethality with the lapse of time for 7 days was measured and the value of LDSO was obtained therefrom. Both the tested animals as living and the tested animals as died were dissected for observation. LD50 was calculated on the basis of Litchfield-Wilcoxon figure-calculation method.

[2] = system: Wister rats; test: as above; type: in vivo; conditions: rats
Procedure: as §1, §2

[3] = system: ICR-JCL mice; test: as above; type: in vivo; conditions: mice
Procedure: as §1, §2

[4] = system: guinea pigs; test: Sensitization, maximization test by Magnusson and Kligman; type: in vivo; conditions: challenge on day 21, sealed 24 hours
Procedure: This was tested in accordance with a maximization test by Magnusson B. and Kligman, A.M. The test is as follows:
Twenty guinea pigs were prepared for the test, ten being for the induction and the other ten being for the control in the challenge. The suprascapular part of the guinea pig was clipped and shaved in the area of 4cm x 6cm, and the following three pairs of hypodermic injections (a), (b) and (c) were imparted simultaneously to both the right and left parts as being symmetrical about the median line. • (a) Each 0.05ml of FCA to two points in both the right and left parts, totalling O.lml in all. • (b) Each 0.05ml of the test substance to two points in both the right and left parts, in the form of an aqueous solution (content of test substance: 10X). • (c) Each 0.05ml of FCA as containing the test substance emulsion to two points in both the right and left parts.
After one week from the hypodermic injection, the suprascapular part was again clipped and vaseline containing 10X of sodium laurylsulfate was applied thereover thereby to cause a slight inflammation on the applied part. By this treatment, the sensitization was intensified. Next, the test substance was applied to this part, which was thereafter airtightly sealed. […]

[5] = at the dosages of Table-1, 7 days

SMILES: COC1=C(OC)C(=O)C(CC=C(C)CCC=C(C)CCC=C(C)CCC=C(C)CCC=C(C)CCC=C(C)CCC=C(C)CCC=C(C)CCC=C(C)CCC=C(C)C)=C(C)C1=O [ubiquinone-10]
- LD50 at 168 h ([1]; mouse, im, mice (male, female), Intramuscular): 500 mg/kg
- LD50 at 168 h ([1]; mouse, ip, mice (male, female), Intra-abdominal): 1500 mg/kg
- LD50 at 168 h ([1]; mouse, po, mice (male, female), Peroral): 4000 mg/kg
- LD50 at 168 h ([1]; mouse, sc, mice (male, female), Hypodermic): 500 mg/kg
- LD50 at 168 h ([1]; mouse, mice (male, female), Endermic): 4000 mg/kg
- LD50 at 168 h ([1]; mouse, mice (male, female), Intravenous): 250 mg/kg
- LD50 at 168 h ([1]; rat, im, rats (male, female), Intramuscular): 500 mg/kg
- LD50 at 168 h ([1]; rat, ip, rats (male, female), Intra-abdominal): 1500 mg/kg
- LD50 at 168 h ([1]; rat, po, rats (male, female), Peroral): 4000 mg/kg
- LD50 at 168 h ([1]; rat, sc, rats (male, female), Hypodermic): 500 mg/kg
- LD50 at 168 h ([1]; rat, rats (male, female), Endermic): 4000 mg/kg
- LD50 at 168 h ([1]; rat, rats (male, female), Intravenous): 250 mg/kg
- general condition, weight, amount of feed intake, observation in dissection ([2]; at the dosages of Table-1): no abnormal change was found
- lethality [2, 5]: no animals as tested died
- general condition, weight, amount of feed intake, observation in dissection ([3]; at the dosages of Table-1): no abnormal change was found
- lethality [3, 5]: no animals as tested died
- sensitization reaction [4]: No sensitization reaction
